Assay results from paper PMC13022382, “A high-affinity split-HaloTag for live-cell protein labeling” (Nature Communications, 2026).
Residues, ends and D or L forms follow the SMILES beside them. *: point of attachment. Biotin = O=C1N[C@H]2[C@H](CS[C@H]2CCCCC(=O)*)N1

Legend:
cpHaloΔ = tested on: cpHaloΔ; design: method as in 2 sources, one per row (each row's own in cited_ref): ref 4 (Huppertz et al., Science 2024) ||| ref PhD thesis of Jonas Wilhelm; details: CA-TMR labeling kinetics, TEVp-cleaved cpHalo∆; 500 nM cpHaloΔ protein, 100 nM CA-TMR (EC50 >1 μM); ref 4 (Huppertz et al., Science 2024); read-out: EC50 for the parental cpHalo∆; cited from earlier work
cpHaloΔ3-TMR = test: Bio-layer interferometry binding kinetics, biotin-Hpep with cpHaloΔ3-TMR; details: BLI, 25 °C, 1:1 global fit; for Kd: biotin-Hpep 50 nM immobilised, cpHalo∆3-TMR 300–2 nM; for koff / kon: biotin-Hpep, cpHalo∆3-TMR
Procedure: (§1) After incubation, Hpep1 was removed by IMAC purification on a gravity flow column and buffer was exchanged to activity buffer using Amicon Ultra-15 Centrifugal Filter Unit. The protein labeling was verified by SDS-PAGE, comparing Coomassie blue staining and in-gel fluorescence (Supplementary Fig. 19). Protein labeling and Hpep1 removal were further verified by HRMS as previously explained.
(§2) Bio-layer interferometry (BLI) analysis was performed in a 96-well plate using an Octet® R4 system (Sartorius) with an acquisition rate for standard kinetics of 5.0 Hz at 25 °C. […] The raw data was analyzed using Octet® Analysis Studio (Sartorius). For data correction, response curves were baseline-aligned by subtracting the average signal of the baseline step and Savitzky–Golay filtering was used to remove high-frequency noise from the data.

cpHaloΔ3-SiR = test: Bio-layer interferometry binding kinetics, biotin-Hpep with cpHaloΔ3-SiR; details: BLI, 25 °C, 1:1 global fit; for Kd: biotin-Hpep 50 nM immobilised, cpHalo∆3-SiR 300–2 nM; for koff / kon: biotin-Hpep, cpHalo∆3-SiR
Procedure: as §1, §2

Chain of cpHaloΔ (P0A3G2 4-141 L47V/S58T/D78G/Y87F/L88M/C128F): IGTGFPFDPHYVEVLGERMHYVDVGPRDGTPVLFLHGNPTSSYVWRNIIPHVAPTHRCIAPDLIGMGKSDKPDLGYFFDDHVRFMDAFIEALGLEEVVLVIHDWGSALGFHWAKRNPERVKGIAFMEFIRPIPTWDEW
Chain of cpHaloΔ (P0A3G2 156-290 E160K/A167V/A172T/K175M/C176G/K195N/A224E/N227D/E257K/T264A/H272N/Y273L): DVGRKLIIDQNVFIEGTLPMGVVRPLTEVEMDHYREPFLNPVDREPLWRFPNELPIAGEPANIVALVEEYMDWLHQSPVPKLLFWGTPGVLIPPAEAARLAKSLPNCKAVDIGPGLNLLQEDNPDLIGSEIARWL

Compound: WRETFQLFRT [Hpep6, previously reported split-HaloTag peptide, […]]
- EC50 (cpHaloΔ): 2.39 µM

Compound: ARETFQAFRT [Hpep1, previously reported split-HaloTag peptide, […]]
- EC50 (cpHaloΔ): 2980 µM

Compound: WKEEVIKAFKLFRD [Hpep4, previously reported split-HaloTag peptide, […]]
- EC50 (cpHaloΔ): 21 µM

Compound: SKRDAREMFQAFRT [Hpep3, previously reported split-HaloTag peptide, […]]
- EC50 (cpHaloΔ): 149 µM

Compound: AREMFQAFRT [Hpep2, previously reported split-HaloTag peptide, […]]
- EC50 (cpHaloΔ): 1120 µM

Compound: CSCC[C@H](NC(=O)[C@H](CCC(=O)O)NC(=O)[C@H](CCCNC(=N)N)NC(=O)[C@H](Cc1c[nH]c2ccccc12)NC(=O)[C@H](CC(=O)O)NC(=O)[C@H](CCCNC(=N)N)NC(=O)[C@H](CCCCN)NC(=O)[C@H](CO)NC(=O)CCCC[C@@H]1SC[C@@H]2NC(=O)N[C@@H]21)C(=O)N[C@@H](Cc1ccccc1)C(=O)N[C@@H](CCCNC(=N)N)C(=O)N[C@@H](CC(C)C)C(=O)N[C@@H](Cc1ccccc1)C(=O)N[C@@H](CCCNC(=N)N)C(=O)N[C@H](C(=O)O)[C@@H](C)O [biotin-Hpep11] (Biotin-SKRDWREMFRLFRT-OH)
- Kd (cpHaloΔ3-TMR): 0.0106 µM
- koff (cpHaloΔ3-TMR): 0.000687 s⁻¹
- kon (cpHaloΔ3-TMR): 64900 M⁻¹ s⁻¹
- Kd (cpHaloΔ3-SiR): 0.00427 µM
- koff (cpHaloΔ3-SiR): 0.000214 s⁻¹
- kon (cpHaloΔ3-SiR): 50000 M⁻¹ s⁻¹

Compound: WREEVRKAFKLFRQ [Hpep5, previously reported split-HaloTag peptide, […]]
- EC50 (cpHaloΔ): 10.7 µM

Compound: CSCC[C@H](NC(=O)[C@H](CCC(=O)O)NC(=O)[C@H](CCCNC(=N)N)NC(=O)[C@H](Cc1c[nH]c2ccccc12)NC(=O)[C@H](CO)NC(=O)[C@H](Cc1c[nH]c2ccccc12)NC(=O)CNC(=O)[C@H](CCCNC(=N)N)NC(=O)CCCC[C@@H]1SC[C@@H]2NC(=O)N[C@@H]21)C(=O)N[C@@H](Cc1ccccc1)C(=O)N[C@@H](CCCNC(=N)N)C(=O)N[C@@H](CC(C)C)C(=O)N[C@@H](Cc1ccccc1)C(=O)N[C@@H](CCCNC(=N)N)C(=O)N[C@H](C(=O)O)[C@@H](C)O [biotin-Hpep9] (Biotin-RGWSWREMFRLFRT-OH)
- Kd (cpHaloΔ3-TMR): 0.00486 µM
- koff (cpHaloΔ3-TMR): 0.00104 s⁻¹
- kon (cpHaloΔ3-TMR): 214000 M⁻¹ s⁻¹
- Kd (cpHaloΔ3-SiR): 0.0188 µM
- koff (cpHaloΔ3-SiR): 0.00149 s⁻¹
- kon (cpHaloΔ3-SiR): 78900 M⁻¹ s⁻¹
